Source: patent US12138286B2, “Combination method for treating or preventing childhood atopic disease” (Johnson & Johnson Consumer Inc., priority 2022, dated 2024)

Tested on: high-risk infants
Set-up: species or system human
Conditions: in vivo
Excerpt: High-risk infants were identified using parental history of atopic disease and were randomized to either the skin treatment regimen and composition or standard routine care, each set forth below, from soon after recruitment in the postnatal ward (approximately 4 day) until eight weeks of age. Both the intervention and standard of care groups were advised to use a standardized bathing routine for the first 2 months. • Skin treatment regimen and composition: twice daily whole-body application of […] & Long-Lasting Balm, which on pack contains the following ingredients: glycerin, aqua, cetearyl alcohol, isocetyl alcohol, dimethicone, cetyl alcohol, Avena sativa kernel flour, Avena sativa kernel extract, Avena sativa kernel oil, caprylic/capric triglyceride, ceramide 3, ethylhexylglycerin, p-anisic acid, sodium cetearyl sulfate, palmitic acid, stearic acid, sodium sulfate, sodium chloride, citric acid, dipotassium phosphate, potassium phosphate, sodium hydroxide, tocopherol, benzyl alcohol, benzoic acid, and potassium sorbate. • Control: Standard routine care, which involves no use of moisturizer for the first two months. Within approximately 4 days of birth, infants were randomized to either treatment with skin treatment regimen and composition or to standard routine skincare with no moisturizer until 2 months of age. […]

Infants advised to stop applying the emollient after developing a rash with a potential temporal relationship with the emollient: One
Parent-reported skin infections: 5%
Substance: AVEENO® Dermexa Fast & Long-Lasting Balm [Intervention]
